Results published in ChEMBL document CHEMBL4834490, “Novel Bromodomain Inhibitors for Treating Cancer, Fibrosis, and Inflammatory Disorders” (ACS Med Chem Lett, 2021).

Columns and labels:
[1] = biological target: T1, Bromodomain-containing protein 4 (Homo sapiens, UniProt O60885); experiment: Inhibition of binding of N-terminal His-tagged human full length recombinant BRD4 (2 to 1362 residues) expressed in baculovirus-infected Sf9 cells with acetylated histone H4 peptide (1 to 21) preincubated for 30 mins followed by H4 ligand addition and measured after 30 mins AlphaScreen assay
[2] = biological target: T1, Bromodomain-containing protein 4; experiment: Binding affinity to DNA-tagged human BRD4 (BD1,2) isoform long expressed in Escherichia coli BL21 incubated for 1 hr by competitive ligand binding BROMOscan assay

| SMILES | IC50 [1] [nM] | Kd [2] [nM] |
| --- | --- | --- |
| Cc1cc(-c2ccc3nc(-c4cnn(CC(C)(C)O)c4)nc(N4CCOC[C@@H]4c4ccc(F)cc4)c3c2)cn(C)c1=O | < 100 | < 100 |
| Cn1cc(-c2ccc3nc(-c4cnn(CC(C)(C)O)c4)nc(N4CCOC[C@@H]4c4ccc(F)cc4)c3c2)c2cc[nH]c2c1=O | < 100 | < 100 |
| Cn1cc(-c2ccc3nc(-c4cnn(CC(C)(C)O)c4)nc(N4CCOC[C@@H]4c4ccccc4)c3c2)c2cc[nH]c2c1=O | < 100 | < 100 |

The next lines start with the values.

| IC50 [1] [nM] | Kd [2] [nM] | SMILES |
| --- | --- | --- |
| < 100 | < 100 | Cc1cc(-c2ccc3nc(-c4cnn(CC(C)(C)O)c4)nc(N4CCOC[C@@H]4c4ccccc4)c3c2)cn(C)c1=O |
| 100 | < 100 | Cc1cc(-c2ccc3nc(-c4cnn(CC(C)(C)O)c4)nc(N4CCOC[C@@H]4C4CC4)c3c2)cn(C)c1=O |
| < 100 | < 100 | Cn1cc(-c2ccc3nc(-c4cnn(CC(C)(C)O)c4)nc(N4CCOC[C@@H]4C4CC4)c3c2)c2cc[nH]c2c1=O |
